Reference: ChEMBL document CHEMBL5724914, “Linking interpersonal differences in gut microbiota composition and drug biotransformation activity” (2024)

Tests used:
[1] = The drug is tested on WLS-098 corresponding to human gut metagenome with ENA study accession number: PRJEB37062 and ENA sample accession number: ERS12561754 for biotransformation under anaerobic condition. The drug concentrations were measured over 9 timepoints collected between 0 and 24 hours of incubation by liquid-chromatography-coupled mass spectrometry (LC–MS); settings: 2 µM
[2] = human gut metagenome, 24 h, 2 µM
[3] = human gut metagenome, 24 h, 2 µM; remark: listed apart in the source
[4] = human gut metagenome, 24 h, 2 µM; remark: listed apart in the source
[5] = human gut metagenome, 24 h, 2 µM; remark: listed apart in the source
[6] = human gut metagenome, 24 h, 2 µM; remark: listed apart in the source
[7] = human gut metagenome, 24 h, 2 µM; remark: listed apart in the source
[8] = The drug is tested on Z-002 corresponding to rabbit gut metagenome with ENA study accession number: PRJEB37062 and ENA sample accession number: ERS12561802 for biotransformation under anaerobic condition. The drug concentrations were measured over 9 timepoints collected between 0 and 24 hours of incubation by liquid-chromatography-coupled mass spectrometry (LC–MS); settings: 2 µM
[9] = human gut metagenome, 24 h, 2 µM; remark: listed apart in the source
[10] = The drug is tested on WLS-170 corresponding to human gut metagenome with ENA study accession number: PRJEB37062 and ENA sample accession number: ERS12561762 for biotransformation under anaerobic condition. The drug concentrations were measured over 9 timepoints collected between 0 and 24 hours of incubation by liquid-chromatography-coupled mass spectrometry (LC–MS); settings: 2 µM
[11] = The drug is tested on WLS-006 corresponding to human gut metagenome with ENA study accession number: PRJEB37062 and ENA sample accession number: ERS12561741 for biotransformation under anaerobic condition. The drug concentrations were measured over 9 timepoints collected between 0 and 24 hours of incubation by liquid-chromatography-coupled mass spectrometry (LC–MS); settings: 2 µM
[12] = human gut metagenome, 24 h, 2 µM; remark: listed apart in the source
[13] = human gut metagenome, 24 h, 2 µM; remark: listed apart in the source
[14] = The drug is tested on WLS-082 corresponding to human gut metagenome with ENA study accession number: PRJEB37062 and ENA sample accession number: ERS12561751 for biotransformation under anaerobic condition. The drug concentrations were measured over 9 timepoints collected between 0 and 24 hours of incubation by liquid-chromatography-coupled mass spectrometry (LC–MS); settings: 2 µM
[15] = The drug is tested on WLS-052 corresponding to human gut metagenome with ENA study accession number: PRJEB37062 and ENA sample accession number: ERS12561747 for biotransformation under anaerobic condition. The drug concentrations were measured over 9 timepoints collected between 0 and 24 hours of incubation by liquid-chromatography-coupled mass spectrometry (LC–MS); settings: 2 µM
[16] = human gut metagenome, 24 h, 2 µM; remark: listed apart in the source
[17] = The drug is tested on Z-023 corresponding to metagenome with ENA study accession number: PRJEB37062 and ENA sample accession number: ERS12561822 for biotransformation under anaerobic condition. The drug concentrations were measured over 9 timepoints collected between 0 and 24 hours of incubation by liquid-chromatography-coupled mass spectrometry (LC–MS); settings: 2 µM
[18] = The drug is tested on Z-007 corresponding to rat gut metagenome with ENA study accession number: PRJEB37062 and ENA sample accession number: ERS12561807 for biotransformation under anaerobic condition. The drug concentrations were measured over 9 timepoints collected between 0 and 24 hours of incubation by liquid-chromatography-coupled mass spectrometry (LC–MS); settings: 2 µM
Note: call rule not given here.

## CN1CCc2cccc3c2[C@H]1Cc1ccc(O)c(O)c1-3 [APOMORPHINE]
[1]
  Bacterial Biotransformation: Compound NOT metabolized
[2]
  Bacterial Biotransformation: Compound NOT metabolized
[3]
  Bacterial Biotransformation: Compound NOT metabolized
[4]
  Bacterial Biotransformation: Compound NOT metabolized
[5]
  Bacterial Biotransformation: Compound NOT metabolized
[6]
  Bacterial Biotransformation: Compound NOT metabolized
[7]
  Bacterial Biotransformation: Compound NOT metabolized
[8]
  Bacterial Biotransformation: Compound NOT metabolized
[9]
  Bacterial Biotransformation: Compound NOT metabolized
[10]
  Bacterial Biotransformation: Compound NOT metabolized
[11]
  Bacterial Biotransformation: Compound NOT metabolized
[12]
  Bacterial Biotransformation: Compound NOT metabolized
[13]
  Bacterial Biotransformation: Compound NOT metabolized

## OC(CCN1CCCCC1)(c1ccccc1)C1CC2C=CC1C2 (centres undefined) [BIPERIDEN]
[1]
  Bacterial Biotransformation: Compound metabolized
[2]
  Bacterial Biotransformation: Compound metabolized
[3]
  Bacterial Biotransformation: Compound NOT metabolized
[4]
  Bacterial Biotransformation: Compound NOT metabolized
[14]
  Bacterial Biotransformation: Compound NOT metabolized
[5]
  Bacterial Biotransformation: Compound metabolized
[6]
  Bacterial Biotransformation: Compound NOT metabolized
[7]
  Bacterial Biotransformation: Compound NOT metabolized
[15]
  Bacterial Biotransformation: Compound NOT metabolized
[9]
  Bacterial Biotransformation: Compound NOT metabolized
[10]
  Bacterial Biotransformation: Compound metabolized
[11]
  Bacterial Biotransformation: Compound metabolized
[12]
  Bacterial Biotransformation: Compound NOT metabolized
[13]
  Bacterial Biotransformation: Compound NOT metabolized
[16]
  Bacterial Biotransformation: Compound NOT metabolized

## CC(=O)O[C@]1(C(C)=O)CC[C@H]2[C@@H]3C=C(Cl)C4=CC(=O)[C@@H]5C[C@@H]5[C@]4(C)[C@H]3CC[C@@]21C [CYPROTERONE ACETATE]
[1]
  Bacterial Biotransformation: Compound metabolized
[2]
  Bacterial Biotransformation: Compound NOT metabolized
[3]
  Bacterial Biotransformation: Compound metabolized
[17]
  Bacterial Biotransformation: Compound metabolized
[4]
  Bacterial Biotransformation: Compound metabolized
[14]
  Bacterial Biotransformation: Compound NOT metabolized
[5]
  Bacterial Biotransformation: Compound metabolized
[6]
  Bacterial Biotransformation: Compound metabolized
[7]
  Bacterial Biotransformation: Compound metabolized
[8]
  Bacterial Biotransformation: Compound metabolized
[15]
  Bacterial Biotransformation: Compound metabolized
[9]
  Bacterial Biotransformation: Compound metabolized
[10]
  Bacterial Biotransformation: Compound metabolized
[11]
  Bacterial Biotransformation: Compound metabolized
[12]
  Bacterial Biotransformation: Compound NOT metabolized
[13]
  Bacterial Biotransformation: Compound metabolized
[16]
  Bacterial Biotransformation: Compound metabolized

## CN1C[C@H](C(=O)N[C@]2(C)O[C@@]3(O)[C@@H]4CCCN4C(=O)[C@H](Cc4ccccc4)N3C2=O)C=C2c3cccc4[nH]cc(c34)C[C@H]21.CN1C[C@H](C(=O)N[C@]2(C)O[C@@]3(O)[C@@H]4CCCN4C(=O)[C@H](Cc4ccccc4)N3C2=O)C=C2c3cccc4[nH]cc(c34)C[C@H]21.O=C(O)C(O)C(O)C(=O)O [ERGOTAMINE TARTRATE]
[1]
  Bacterial Biotransformation: Compound metabolized
[2]
  Bacterial Biotransformation: Compound metabolized
[4]
  Bacterial Biotransformation: Compound metabolized
[18]
  Bacterial Biotransformation: Compound NOT metabolized
[5]
  Bacterial Biotransformation: Compound metabolized
[6]
  Bacterial Biotransformation: Compound metabolized
[7]
  Bacterial Biotransformation: Compound NOT metabolized
[15]
  Bacterial Biotransformation: Compound metabolized
[10]
  Bacterial Biotransformation: Compound metabolized
[11]
  Bacterial Biotransformation: Compound metabolized
[12]
  Bacterial Biotransformation: Compound metabolized
[13]
  Bacterial Biotransformation: Compound metabolized
[16]
  Bacterial Biotransformation: Compound NOT metabolized

## COC(=O)C1=C(C)NC(C)=C(C(=O)OC(C)C)C1c1cccc2nonc12 (centres undefined) [ISRADIPINE]
[1]
  Bacterial Biotransformation: Compound metabolized
[2]
  Bacterial Biotransformation: Compound NOT metabolized
[3]
  Bacterial Biotransformation: Compound metabolized
[4]
  Bacterial Biotransformation: Compound metabolized
[14]
  Bacterial Biotransformation: Compound metabolized
[5]
  Bacterial Biotransformation: Compound metabolized
[6]
  Bacterial Biotransformation: Compound metabolized
[7]
  Bacterial Biotransformation: Compound metabolized
[8]
  Bacterial Biotransformation: Compound metabolized
[15]
  Bacterial Biotransformation: Compound metabolized
[9]
  Bacterial Biotransformation: Compound metabolized
[10]
  Bacterial Biotransformation: Compound metabolized
[11]
  Bacterial Biotransformation: Compound NOT metabolized
[12]
  Bacterial Biotransformation: Compound NOT metabolized
[13]
  Bacterial Biotransformation: Compound metabolized
[16]
  Bacterial Biotransformation: Compound metabolized

## CN(C(=O)CN(CCO)CC(=O)N(C)C(C)(C)Cc1ccccc1)C(C)(C)Cc1ccccc1 [OXETHAZAINE]
[1]
  Bacterial Biotransformation: Compound metabolized
[2]
  Bacterial Biotransformation: Compound metabolized
[3]
  Bacterial Biotransformation: Compound metabolized
[4]
  Bacterial Biotransformation: Compound metabolized
[14]
  Bacterial Biotransformation: Compound metabolized
[5]
  Bacterial Biotransformation: Compound metabolized
[6]
  Bacterial Biotransformation: Compound metabolized
[7]
  Bacterial Biotransformation: Compound metabolized
[15]
  Bacterial Biotransformation: Compound metabolized
[9]
  Bacterial Biotransformation: Compound metabolized
[10]
  Bacterial Biotransformation: Compound metabolized
[11]
  Bacterial Biotransformation: Compound metabolized
[12]
  Bacterial Biotransformation: Compound metabolized
[13]
  Bacterial Biotransformation: Compound metabolized
[16]
  Bacterial Biotransformation: Compound metabolized

## CN1CCN(CC/C=C2/c3ccccc3Sc3ccc(S(=O)(=O)N(C)C)cc32)CC1 [THIOTHIXENE]
[1]
  Bacterial Biotransformation: Compound metabolized
[2]
  Bacterial Biotransformation: Compound metabolized
[3]
  Bacterial Biotransformation: Compound metabolized
[4]
  Bacterial Biotransformation: Compound metabolized
[14]
  Bacterial Biotransformation: Compound metabolized
[5]
  Bacterial Biotransformation: Compound metabolized
[6]
  Bacterial Biotransformation: Compound metabolized
[7]
  Bacterial Biotransformation: Compound metabolized
[15]
  Bacterial Biotransformation: Compound metabolized
[9]
  Bacterial Biotransformation: Compound metabolized
[10]
  Bacterial Biotransformation: Compound metabolized
[11]
  Bacterial Biotransformation: Compound metabolized
[12]
  Bacterial Biotransformation: Compound metabolized
[13]
  Bacterial Biotransformation: Compound NOT metabolized
[16]
  Bacterial Biotransformation: Compound metabolized

## CS(=O)(=O)O.O.O.O.O=C1Cc2cc(CCN3CCN(c4nsc5ccccc45)CC3)c(Cl)cc2N1 [ZIPRASIDONE MESYLATE]
[1]
  Bacterial Biotransformation: Compound metabolized
[2]
  Bacterial Biotransformation: Compound NOT metabolized
[3]
  Bacterial Biotransformation: Compound metabolized
[4]
  Bacterial Biotransformation: Compound metabolized
[14]
  Bacterial Biotransformation: Compound metabolized
[5]
  Bacterial Biotransformation: Compound metabolized
[6]
  Bacterial Biotransformation: Compound NOT metabolized
[7]
  Bacterial Biotransformation: Compound NOT metabolized
[15]
  Bacterial Biotransformation: Compound metabolized
[9]
  Bacterial Biotransformation: Compound metabolized
[10]
  Bacterial Biotransformation: Compound metabolized
[11]
  Bacterial Biotransformation: Compound metabolized
[12]
  Bacterial Biotransformation: Compound NOT metabolized
[13]
  Bacterial Biotransformation: Compound NOT metabolized
[16]
  Bacterial Biotransformation: Compound NOT metabolized
